Measured values from patent publication US20210316010A1, “DRUG DELIVERY PRODUCT, COMPOSITION AND SYSTEM” (MASTER DYNAMIC LIMITED, priority 2018, published 2021).

Experiments:
HeLa cells = settings: treatment for 5 h; cited from earlier work
SAS MCTS = assay: Penetration and distribution in SAS multicellular tumor spheroids (MCTS), confocal microscopy; type: cell-based, Human; settings: after 1 day of incubation
Experimental: In order to investigate the penetration of DOX with different formulations (ND-DOX and ND-HSA-DOX) in tissue model in vitro, SAS MCTS were used to incubate with ND, free DOX, ND-DOX and ND-HSA-DOX.
The ND and DOX with different formulations complex uptake and distribution in SAS MCTS model was monitored by using CLSM.
The cell nuclei were stained with Hoechst […] which emits blue fluorescence (440 nm-484 nm), cell membrane were dyed with 3,3′-dipentyloxacarbocyanine iodide (DIOC'5), and the signal was collected in the 520-555 nm range, shown in red color.
In order to promote the multicellular tumor spheroids (MCTS) formation, SAS cells were seeded in Gravity TRAP ULA Plate, by Insphero, at a density of 5,000 cells per well and cultured at 37° C. with 5% CO2 for 3 days before drug treatment.
For the distributions of ND, DOX, ND-DOX and ND-HSA-DOX within MCTS were determined by confocal laser microscopy.
SAS MCTS were treated with ND, DOX, ND-DOX and ND-HSA-DOX for 4 days. Each day, one of treatment MCTS was harvested and fixed with 3.7% formaldehyde for 24 h. Washing the MCTS 3 time with PBS, and MCTS was incubated with DIOC'5 for 24 h. After washing 3 times, Hoechst 33342 was incubated with MCTS for 24 h. Then MCTS was observed by confocal microscopy.

SAS cells = assay: Monolayer 2D SAS cellular uptake, confocal laser scanning microscopy; type: cell-based, Human; settings: 4 hrs incubation, DOX 20 μg/ml
Source text: Intracellular trafficking and distribution of DOX within SAS cells were used to further investigate the outcomes, by using confocal laser scanning microscopy (CLSM), as shown in the images of FIGS. 21 and 21I.
The 50 nm ND fluorescence was excited with 488 nm, and collected in range 500-515 nm. The ND's fluorescence in this range corresponds predominantly to emission from diamond H^3 defect centers with emission peak near 505 nm, shown as green colour 206. The bright fields as evidenced, were also provided to reveal the morphologies of SAS cells.
Human Oral Squamous Carcinoma cell (SAS) cells were cultured in DMEM medium (Gibco, Invitrogen, UK). The medium was supplemented with 2 mM L-glutamine (Invitrogen, USA), 1.5 g/L sodium bicarbonate (Sigma, UK), 10% fetal bovine serum (Gibco/Life Technologies, Carlsbad, Calif., USA).
Cells were maintained under standard cell culture conditions in an incubator (Galaxy 170S, Eppendorf, USA) containing 95% air and 5% CO2 at 37° C. humid environment.
Culture medium was replaced with a fresh medium every 48 or 72 hr. […]
Unreacted samples were removed by washing. […] The emission of DOX was absorbed at 570-590 nm and ND was detected at 500-515 nm.

## COc1cccc2c1C(=O)c1c(O)c3c(c(O)c1C2=O)C[C@@](O)(C(=O)CO)C[C@@H]3O[C@H]1C[C@H](N)[C@H](O)[C@H](C)O1.Cl [DOX, doxorubicin hydrochloride]
HeLa cells
  intracellular location of DOX: located in nuclear of HeLa cells
SAS MCTS
  penetration in SAS MCTS: limited to the outer cell layers
SAS cells
  intracellular distribution of DOX: distributed on cytoplasm
